Assay results taken from the supplement of paper PMC4862054.

Tests used:
Assay in all cases: normalised viability (% of control), CellTiter-Blue; higher = more viable cells (about 100 = DMSO control)
Conditions in all cases: incubation time: 72 h
DU-4475 = test system: DU-4475
Procedure: (§1)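 DSRT, CellTiter-Blue viability, 72 h incubation. Signal is normalised to DMSO and benzethonium chloride controls. Value is the normalised response at dose 8.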

CAL-148 = test system: CAL-148
Procedure: as §1

MDA-MB-453 = test system: MDA-MB-453
Procedure: as §1

CAL-51 = test system: CAL-51
Procedure: as §1

HDQ-P1 = test system: HDQ-P1
Procedure: as §1

CAL-85-1 = test system: CAL-85-1
Procedure: as §1

Row | SMILES | normalised viability (DU-4475) | normalised viability (CAL-148) | normalised viability (MDA-MB-453) | normalised viability (CAL-51) | normalised viability (HDQ-P1) | normalised viability (CAL-85-1)
1 | Cn1c(Nc2ccc(C(F)(F)F)cc2)nc2cc(Oc3ccnc(-c4ncc(C(F)(F)F)[nH]4)c3)ccc21 [RAF265] (300 nM) | 71.3% | 85.5% | 92.5% | 66.9% | 39.4% | 71.5%
2 | C#Cc1cccc(Nc2ncnc3cc(OCCOC)c(OCCOC)cc23)c1 [Erlotinib] (3000 nM) | 108% | 66.9% | 73.5% | 95.9% | 75.4% | 49.8%
3 | CN(N=O)C(=O)N[C@@H](C=O)[C@@H](O)[C@H](O)[C@H](O)CO [Streptozocin] (3000 nM) | 95.3% | 98.7% | 109% | 108% | 110% | 97.8%
4 | Cn1c(CCCC(=O)O)nc2cc(N(CCCl)CCCl)ccc21 [Bendamustine] (3000 nM) | 105% | 101% | 113% | 112% | 101% | 93.8%
5 | CNCc1ccc(-c2[nH]c3cc(F)cc4c3c2CCNC4=O)cc1 [Rucaparib] (3000 nM) | 87.3% | 87% | 87.5% | 102% | 82.9% | 79.3%
6 | CCN(CCCOc1ccc2c(Nc3cc(CC(=O)Nc4cccc(F)c4)[nH]n3)ncnc2c1)CCOP(=O)(O)O [Barasertib] (300 nM) | 63.8% | 22.6% | 61% | 54% | 64.3% | 73.1%
7 | Clc1ccc(Nc2nnc(Cc3ccncc3)c3ccccc23)cc1 [Vatalanib] (3000 nM) | 111% | 75% | 75.2% | 104% | 91.8% | 94%
8 | O=P1(NCCCl)OCCCN1CCCl (stereo not given) [Ifosfamide] (3000 nM) | 87.2% | 106% | 112% | 97.4% | 107% | 92.9%
9 | CN(C)/N=N/c1[nH]cnc1C(N)=O [Dacarbazine] (3000 nM) | 101% | 94.8% | 95.7% | 97.2% | 95.5% | 87.3%
10 | Cc1ccc(C(=O)N(CCCN)[C@@H](c2oc3cc(Cl)ccc3c(=O)c2Cc2ccccc2)C(C)C)cc1 (300 nM) | 31.2% | 16.8% | 24.8% | 26.7% | 62.6% | 32.4%
11 | O=C1CCC(N2C(=O)c3ccccc3C2=O)C(=O)N1 (stereo not given) [Thalidomide] (3000 nM) | 110% | 113% | 99.4% | 89.8% | 99.7% | 91.7%
12 | COc1cc2nccc(Oc3ccc(NC(=O)C4(C(=O)Nc5ccc(F)cc5)CC4)cc3)c2cc1OC [Cabozantinib] (300 nM) | 103% | 94.7% | 112% | 104% | 72.6% | 86.3%
13 | CN[C@@H]1C[C@H]2O[C@@](C)([C@@H]1OC)n1c3ccccc3c3c4c(c5c6ccccc6n2c5c31)C(=O)N[C@H]4O [UCN-01] (3000 nM) | 1.19% | 41.7% | 20.2% | 6.6% | 10.2% | 6.08%
14 | CC1(C)NC(=O)N(c2ccc([N+](=O)[O-])c(C(F)(F)F)c2)C1=O [Nilutamide] (3000 nM) | 106% | 99.1% | 99% | 96.9% | 127% | 96.8%
15 | Oc1nc(-c2ccc(C(F)(F)F)cc2)nc2c1CSCC2 [XAV-939] (3000 nM) | 94.1% | 89.8% | 95.4% | 90.3% | 76.8% | 94.1%
16 | CC(C)Cn1cnc2c(N)nc3ccccc3c21 [Imiquimod] (3000 nM) | 107% | 95.5% | 95.7% | 107% | 89.1% | 107%
17 | CCC1=C[C@@H]2CN(C1)Cc1c([nH]c3ccccc13)[C@@](C(=O)OC)(c1cc3c(cc1OC)N(C)[C@H]1[C@@](O)(C(=O)OC)[C@H](OC(C)=O)[C@]4(CC)C=CCN5CC[C@]31[C@@H]54)C2 [Vinorelbine] (3000 nM) | 15.8% | 20.1% | 39.8% | 16.6% | 32.7% | 37.1%
18 | N.N.[Cl][Pt][Cl] [Cisplatin] (3000 nM) | 96.8% | 101% | 100% | 106% | 104% | 99.1%
19 | NC(=O)Nc1cc(-c2cccc(F)c2)sc1C(=O)N[C@H]1CCCNC1 [AZD 7762] (300 nM) | 118% | 96.1% | 46.8% | 94.1% | 76.6% | 45.4%
20 | C=C(c1ccc(C(=O)O)cc1)c1cc2c(cc1C)C(C)(C)CCC2(C)C [Bexarotene] (3000 nM) | 97% | 79.8% | 84.2% | 92.8% | 77.3% | 99.2%
